Test results from patent publication US20250129021A1, “SMALL MOLECULE PROTEIN SYNTHESIS MODULATORS” (Interdict Bio, Inc., priority 2023, published 2025).

Experiments:
Type in all cases: biochemical
MYC = assay: In vitro transcription-translation (IVTT) assay, MYC reporter; conditions: IVTT assay, HeLa S3 lysate, MYC reporter, normalized sfGFP/mCherry ratio; half-log dilutions 30 μM-0.1 μM, 2 hrs at 30° C.
Procedure, shortened: (§1)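 Reporter: mCherry, P2A, then 3×FLAG-target peptide-sfGFP fusion, IRES-initiated; HeLa S3 lysate IVTT; cpd dilutions 30 μM−0.1 μM half-log in 100% DMSO (dilution-plate conc); DNA added last; 2 h, 30° C; PBS quench.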

CCND1 = assay: In vitro transcription-translation (IVTT) assay, CCND1 reporter; conditions: IVTT, HeLa S3 lysate, 2 hrs at 30° C.
Procedure, shortened: as §1

MCL-1 = assay: In vitro transcription-translation (IVTT) assay, MCL-1 reporter; conditions: IVTT, HeLa S3 lysate, 2 hrs at 30° C.; read-out: MCL1 IC50
Procedure, shortened: as §1

CCNTB1 = assay: In vitro transcription-translation (IVTT) assay, CCNTB1 reporter; conditions: HeLa S3 lysate, 2 hrs at 30° C.
Procedure, shortened: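 HeLa S3 lysate-based coupled transcription-translation reactions with reporter plasmids, compounds in half-log dilutions (30 μM−0.1 μM, in DMSO), 2 h at 30° C. sfGFP/mCherry ratio, corrected for no-DNA background, normalized to no-drug control and fitted for IC50.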

cGAS = assay: In vitro transcription-translation (IVTT) assay, cGAS reporter; conditions: HeLa S3 lysate, 2 hrs at 30° C.
Description: (§2) Each preparation takes 8 cell pellets (4 ml packed volume each, approximately 1.0×10^9 cells per pellet). Thaw cell pellets from −80° C. on ice for 90 mins. Lay pellets horizontally on top of the ice and rotate every 30 mins to ensure even thawing. Once thawed, add 4 mL of cold lysis buffer to each pellet, and using a serological pipet, gently pipet up and down to break up clumps. Incubate resuspended cells in ice for an additional 30 mins (plunged into ice). During 30 min incubation, rinse and RNase-zap (Ambion) glass dounces (use loose pestle “A”), gently dry and place on ice until needed. Prepare RNase-free Eppendorf tubes for spinning and for batch storage. […]
(§3) In vitro transcription-translation assay setup: Each assay includes a master mix containing lysate and shared components, a 96-well plate containing compound titrations for testing, a 96-well DNA plate with reporter constructs to be tested, 96-well skirted PCR plates, and 96-well flat-bottom, black, fluorescent assay plates. […] After 2 hrs, quench the assay using 45 μL of PBS, and transfer 50 μL to a flat-bottom black microplate Quantify the sfGFP and mCherry signals from each well on each plate, taking 3 reads of each plate, and perform data analysis below.
(§4) In vitro transcription-translation assay data analysis: Each plate is read three times in channels for both sfGFP and mCherry signals. […]

STING = assay: In vitro transcription-translation (IVTT) assay, STING reporter; conditions: HeLa S3 lysate, 2 hrs at 30° C.
Description: as §2, §3, §4

JAK1 = assay: In vitro transcription-translation (IVTT) assay, JAK1 reporter; conditions: HeLa S3 lysate, 2 hrs at 30° C.
Description: as §2, §3, §4

NFKB1 = assay: In vitro transcription-translation (IVTT) assay, NFKB1 reporter; conditions: HeLa S3 lysate, 2 hrs at 30° C.
Description: as §2, §3, §4

IC50 (CCND1) [µM]	IC50 (MCL-1) [µM]	IC50 (CCNTB1) [µM]	IC50 (cGAS) [µM]	IC50 (STING) [µM]	IC50 (JAK1) [µM]	IC50 (NFKB1) [µM]	SMILES	IC50 (MYC) [µM]
< 10	< 10	< 10	< 10	< 10	< 10	–	O=C(NCc1cccc(F)c1)O[C@@H]1[C@@H](O)CN[C@@H]1Cc1ccc(-c2cnco2)cc1 [V190545, (2R,3S,4S)-4-hydroxy-2-{[4-(1,3-oxazol-5-yl)phenyl]methyl}pyrrolidin-3-yl N-[(3-fluorophenyl)methyl]carbamate]	< 10
< 10	< 10	< 10	< 10	< 10	< 10	< 10	O=C(NCc1ccccc1)O[C@@H]1[C@@H](O)CN[C@@H]1Cc1ccc(-c2ccc3c(c2)CNC3)cc1 [V188347, (2R,3S,4S)-2-{[4-(2,3-dihydro-1H-isoindol-5-yl)phenyl]methyl}-4-hydroxypyrrolidin-3-yl N-benzylcarbamate]	< 10
